biological target: T1, PI3Kalpha (Homo sapiens, UniProt P42336); assay: PI3K alpha enzyme assay (HTRF); format: biochemical; conditions: PI3Kalpha 0.4875 nM, ATP 25 uM, di-C8 PI(4,5)P2 3.5 uM, 30 min room temperature; read-out: IC50 (inhibit PI3Kalpha)
T1 construct: His (N); host or cells: baculovirus expression system (insect cells)
Experimental: 0.5 uL compounds in DMSO are added to wells of a 384 well microtitre plate (Corning 3575). At room temperature: 10 ul PI3K reaction buffer (50 mM Hepes, 5 mM DTT, 150 mM NaCl, 10 mM beta-glycerophosphate, 10 mM MgCl2, 0.25 mM sodium cholate and 0.001% CHAPS, pH 7.00) containing ATP (25 uM, Promega) is added followed immediately by 10 ul PI3K reaction buffer containing di-C8 PI(4,5)P2 (3.5 uM, CellSignals) and PI3Kalpha (0.4875 nM, Millennium Protein Sciences Group) and the mixture is incubated with shaking at room temperature for 30 minutes. Then 5 ul PI3K stop mix (50 mM Hepes, 5 mM DTT, 150 mM NaCl, 0.01% Tween-20, 15 mM EDTA and 25 nM biotin-PI(3,4,5)P3 (Echelon) is added to quench the reaction followed immediately by addition of 5 ul HTRF detection mix (50 mM Hepes, 5 mM DTT, 150 mM NaCl, 0.01% Tween-20, 40 mM KF, 10 nM GST:GRP-1 PH domain (Millennium Protein Sciences Group), 15 nM Streptavidin-XL (CisBio) and 0.375 nM anti-GST Eu++ antibody (CisBio) at pH 7.00). The plates are then incubated for 1 hour at room temperature with shaking and then read on a BMG PheraStar Plus reader.

T1 sequence (P42336 whole entry): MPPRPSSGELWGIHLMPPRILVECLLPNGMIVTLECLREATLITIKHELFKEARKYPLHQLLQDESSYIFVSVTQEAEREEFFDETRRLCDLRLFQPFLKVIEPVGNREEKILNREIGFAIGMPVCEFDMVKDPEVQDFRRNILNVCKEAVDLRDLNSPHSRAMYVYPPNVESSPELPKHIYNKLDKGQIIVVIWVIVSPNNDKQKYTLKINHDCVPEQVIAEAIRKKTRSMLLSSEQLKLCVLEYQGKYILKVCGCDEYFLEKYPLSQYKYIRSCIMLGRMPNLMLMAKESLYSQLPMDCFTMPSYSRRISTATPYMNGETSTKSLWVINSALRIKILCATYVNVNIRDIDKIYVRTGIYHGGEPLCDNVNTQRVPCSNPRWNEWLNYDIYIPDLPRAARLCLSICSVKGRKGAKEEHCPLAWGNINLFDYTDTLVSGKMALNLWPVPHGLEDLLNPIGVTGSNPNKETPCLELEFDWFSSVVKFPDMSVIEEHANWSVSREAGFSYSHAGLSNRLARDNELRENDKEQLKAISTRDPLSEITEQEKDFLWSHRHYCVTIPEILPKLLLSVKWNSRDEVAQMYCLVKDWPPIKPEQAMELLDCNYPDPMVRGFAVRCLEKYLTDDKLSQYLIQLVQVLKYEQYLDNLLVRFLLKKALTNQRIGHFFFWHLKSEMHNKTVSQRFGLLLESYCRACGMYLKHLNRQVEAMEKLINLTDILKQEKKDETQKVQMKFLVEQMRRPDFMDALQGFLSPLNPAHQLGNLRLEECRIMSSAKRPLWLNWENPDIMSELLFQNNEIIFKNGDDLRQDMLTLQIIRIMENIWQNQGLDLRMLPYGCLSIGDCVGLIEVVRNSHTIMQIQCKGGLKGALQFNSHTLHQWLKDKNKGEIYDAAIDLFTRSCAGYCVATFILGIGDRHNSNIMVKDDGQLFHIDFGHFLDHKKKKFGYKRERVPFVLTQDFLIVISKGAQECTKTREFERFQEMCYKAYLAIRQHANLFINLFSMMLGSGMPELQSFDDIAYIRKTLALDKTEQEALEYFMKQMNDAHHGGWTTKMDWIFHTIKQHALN
T1 sequence (P27986 whole entry partner): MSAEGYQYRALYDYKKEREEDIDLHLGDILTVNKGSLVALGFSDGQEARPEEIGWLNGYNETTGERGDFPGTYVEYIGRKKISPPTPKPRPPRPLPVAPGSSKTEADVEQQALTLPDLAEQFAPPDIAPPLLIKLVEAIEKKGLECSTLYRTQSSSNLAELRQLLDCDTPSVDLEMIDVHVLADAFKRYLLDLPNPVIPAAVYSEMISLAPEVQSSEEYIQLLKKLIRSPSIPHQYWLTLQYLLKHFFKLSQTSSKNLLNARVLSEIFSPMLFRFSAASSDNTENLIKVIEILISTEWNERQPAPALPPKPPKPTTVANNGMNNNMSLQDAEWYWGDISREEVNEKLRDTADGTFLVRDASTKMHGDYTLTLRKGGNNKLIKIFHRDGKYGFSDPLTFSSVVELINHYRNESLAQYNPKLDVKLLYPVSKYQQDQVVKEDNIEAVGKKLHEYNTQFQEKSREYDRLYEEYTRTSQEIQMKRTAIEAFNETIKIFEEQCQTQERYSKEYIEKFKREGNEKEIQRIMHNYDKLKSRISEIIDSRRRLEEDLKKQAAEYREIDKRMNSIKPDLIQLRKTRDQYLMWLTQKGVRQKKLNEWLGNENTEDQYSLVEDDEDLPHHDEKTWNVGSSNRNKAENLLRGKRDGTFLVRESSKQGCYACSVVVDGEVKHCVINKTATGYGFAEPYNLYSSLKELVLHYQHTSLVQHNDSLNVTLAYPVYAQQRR

Q: `CC(=O)Nc1cc(-c2nc(-c3ccccc3Cl)c(C(=O)NC[C@@H](C)O)s2)ccn1` [Example 4-C] was tested. Which IC50 did it give?
A: > 1000 nM

Q: For `CC(=O)Nc1cc(-c2nc(-c3ccc(-c4nnc(C)o4)cc3)c(-c3ncc[nH]3)s2)ccn1` [Example 8-C], which IC50 is on record?
A: > 1000 nM

Q: `CC(=O)Nc1cc(-c2nc(-c3cccc(-n4cccn4)c3)c(-c3ncc[nH]3)s2)ccn1` [Example 14-C] was tested. Which IC50 did it give?
A: > 1000 nM

Q: Which IC50 does the source give for `COc1ccc(-c2nc(-c3ccnc(NC(C)=O)c3)sc2-c2ncc[nH]2)cc1OC` [Example 16-C] here?
A: > 1000 nM

Q: `COc1cnc(NC(C)=O)cc1-c1nc(-c2ccc(Cl)cc2Cl)c(-c2ncc[nH]2)s1` [Example 18-C] was tested. Which IC50 did it give?
A: > 1000 nM

Q: Which IC50 does the source give for `Cc1nn2c(c1-c1nc(C3CCCCC3)c(-c3nnc[nH]3)s1)CCCC2` [Example 19-B, 3-[4-cyclohexyl-5-(4H-1,2,4-triazol-3-yl)-1,3-thiazol-2-yl]-2-methyl-4,5,6,7-tetrahydropyrazolo[1,5-a]pyridine] here?
A: > 1000 nM

Q: Which IC50 does the source give for `CC(=O)Nc1cc(-c2nc(-c3ccncc3)c(-c3ncc[nH]3)s2)ccn1` [Example 27-C] here?
A: > 1000 nM

Q: For `CC(=O)Nc1cc(-c2nc(-c3ccccc3Cl)c(-c3ncc[nH]3)s2)c(C)cn1` [Example 30-C], which IC50 is on record?
A: > 1000 nM

Q: Which IC50 does the source give for `CC(=O)Nc1cc(-c2nc(-c3ccccc3)c(-c3ncc[nH]3)s2)c(C)cn1` [Example 36-C] here?
A: > 1000 nM

Q: `Cc1nc2cccnn2c1-c1nc(-c2ccccc2)c(-c2nnc[nH]2)s1` [Example 41-B, 2-methyl-3-[4-phenyl-5-(4H-1,2,4-triazol-3-yl)-1,3-thiazol-2-yl]imidazo[1,2-b]pyridazine] was tested. Which IC50 did it give?
A: > 1000 nM

Q: `CC(=O)Nc1cc(-c2nc(-c3ccc(OC(C)C)cc3)c(-c3ncc[nH]3)s2)ccn1` [Example 46-C] was tested. Which IC50 did it give?
A: > 1000 nM

Q: With `CC(=O)Nc1cc(-c2nc(-c3ccc(F)c(CO)c3)c(-c3ncc[nH]3)s2)ccn1` [Example 47-C] as the compound, how does the IC50 read?
A: > 1000 nM

Q: For `CC(=O)Nc1cc(-c2nc(-c3ccccc3Cl)c(C(=O)NCCO)s2)ccn1` [Example 48-C, 2-[2-(acetylamino)pyridin-4-yl]-4-(2-chlorophenyl)-N-(2-hydroxyethyl)-1,3-thiazole-5-carboxamide], which IC50 is on record?
A: > 1000 nM

Q: Which IC50 does the source give for `CCOc1nc(-c2ccnc(NC(=O)c3ccccn3)c2)sc1-c1nnc[nH]1` [Example 49-B, N-{4-[4-ethoxy-5-(4H-1,2,4-triazol-3-yl)-1,3-thiazol-2-yl]pyridin-2-yl}pyridine-2-carboxamide] here?
A: > 1000 nM

Q: How did the IC50 turn out when `CCOc1nc(-c2ccnc(NC(=O)C3CCCCC3)c2)sc1-c1nnc[nH]1` [Example 50-B, N-{4-[4-ethoxy-5-(4H-1,2,4-triazol-3-yl)-1,3-thiazol-2-yl]pyridin-2-yl}cyclohexanecarboxamide] was run?
A: > 1000 nM

Q: How did the IC50 turn out when `CCOc1nc(-c2ccnc(NC(=O)c3sccc3C)c2)sc1-c1nnc[nH]1` [Example 52-B, N-{4-[4-ethoxy-5-(4H-1,2,4-triazol-3-yl)-1,3-thiazol-2-yl]pyridin-2-yl}-3-methylthiophene-2-carboxamide] was run?
A: > 1000 nM

Q: With `CCOc1nc(-c2ccnc(NC(=O)c3ccccc3Cl)c2)sc1-c1nnc[nH]1` [Example 54-B, 2-chloro-N-{4-[4-ethoxy-5-(4H-1,2,4-triazol-3-yl)-1,3-thiazol-2-yl]pyridin-2-yl}benzamide] as the compound, how does the IC50 read?
A: > 1000 nM

Q: For `CC(=O)Nc1cc(-c2nc(-c3c(C)cccc3C)c(-c3nnc[nH]3)s2)ccn1` [Example 56-C, N-{4-[4-(2,6-dimethylphenyl)-5-(4H-1,2,4-triazol-3-yl)-1,3-thiazol-2-yl]pyridin-2-yl}acetamide], which IC50 is on record?
A: > 1000 nM

Q: With `CC(=O)Nc1cc(-c2nc(Br)c(-c3ncc[nH]3)s2)ccn1` [Example 58-C] as the compound, how does the IC50 read?
A: > 1000 nM

Q: With `CC(=O)Nc1cc(-c2nc(-c3ccc(Oc4ccccc4)cc3)c(-c3ncc[nH]3)s2)ccn1` [Example 60-C] as the compound, how does the IC50 read?
A: > 1000 nM

Q: For `COc1ccc(-c2nc(-c3ccnc(NC(C)=O)c3)sc2-c2ncc[nH]2)cc1` [Example 62-C], which IC50 is on record?
A: > 1000 nM

Q: `COCCNC(=O)c1sc(-c2ccnc(NC(C)=O)c2)nc1-c1ccccc1Cl` [Example 64-C] was tested. Which IC50 did it give?
A: > 1000 nM

Q: For `CC(=O)Nc1cc(-c2nc(-c3ccccc3Cl)c(-c3nnc[nH]3)s2)c(C)cn1` [Example 65-C], which IC50 is on record?
A: > 1000 nM

Q: `CCOc1nc(-c2ccnc(NC(=O)C(C)(C)C)c2)sc1-c1nnc[nH]1` [Example 66-B, N-{4-[4-ethoxy-5-(4H-1,2,4-triazol-3-yl)-1,3-thiazol-2-yl]pyridin-2-yl}-2,2-dimethylpropanamide] was tested. Which IC50 did it give?
A: > 1000 nM

Q: Which IC50 does the source give for `CCOc1nc(-c2ccnc(NC(=O)c3ccncc3)c2)sc1-c1nnc[nH]1` [Example 67-B, N-{4-[4-ethoxy-5-(4H-1,2,4-triazol-3-yl)-1,3-thiazol-2-yl]pyridin-2-yl}pyridine-4-carboxamide] here?
A: > 1000 nM

Q: How did the IC50 turn out when `CCOc1nc(-c2ccnc(NC(=O)c3ccccc3C)c2)sc1-c1nnc[nH]1` [Example 68-B, N-{4-[4-ethoxy-5-(4H-1,2,4-triazol-3-yl)-1,3-thiazol-2-yl]pyridin-2-yl}-2-methylbenzamide] was run?
A: > 1000 nM

Q: Which IC50 does the source give for `CCOc1nc(-c2ccnc(NC(=O)c3c(F)cccc3F)c2)sc1-c1nnc[nH]1` [Example 71-B, N-{4-[4-ethoxy-5-(4H-1,2,4-triazol-3-yl)-1,3-thiazol-2-yl]pyridin-2-yl}-2,6-difluorobenzamide] here?
A: > 1000 nM

Q: For `CC(=O)Nc1cccc(-c2nc(-c3ccnc(NC(C)=O)c3)sc2-c2ncc[nH]2)c1` [Example 72-C], which IC50 is on record?
A: > 1000 nM

Q: Which IC50 does the source give for `COc1cccc(OC)c1-c1nc(-c2c(C)nn3ccccc23)sc1-c1nc[nH]n1` [Example 102-B, 3-[4-(2,6-dimethoxyphenyl)-5-(1H-1,2,4-triazol-3-yl)-1,3-thiazol-2-yl]-2-methylpyrazolo[1,5-a]pyridine] here?
A: > 1000 nM

biological target: T2, hPI3Kα (p110alpha catalytic subunit and human p85alpha regulatory subunit complex) (Homo sapiens, UniProt P42336); assay: Human PI3Kα enzyme assay (Phospholipid FlashPlate, γ-[33P] ATP); format: biochemical; conditions: PI3Kα enzyme activity, compound at 1.0 μm, 500 nM ATP
T2 construct: made in house; host or cells: Sf21 insect cells (baculovirus, Bac-to-Bac)
Experimental: hPIK3CA; p110alpha catalytic subunit (GenBank ACCESSION# NM_006218) and hPIK3R1; p85alpha regulatory subunit (GenBank ACCESSION# NM_181523) are cloned from human cDNA library (Clonetec).
Human p110alpha catalytic subunit gene and human p85alpha regulatory subunit gene are respectively inserted into pFASTBacHT (Invitrogen), and each gene was introduced into a baculovirus vector using a Bac-to-Bac system (Invitrogen). Both viruses are injected to insect cultured cells Sf21 to allow coexpression of proteins. p110alpha catalytic subunit and human p85alpha regulatory subunit complex (hPI3Kα) are purified from the cell extract using a Ni chelate column.
L-alpha-Phosphatidyl-D-myo-inositol 4,5-Diphosphate (diC16) [PI(4,5)P2, Wako Pure Chemical Industries, Ltd.] is suspended in Phospholipid FlashPlate Coating Buffer (PerkinElmer) and applied onto Phospholipid FlashPlate PLUS. PI3K reaction buffer (50 mM Tris-HCl, pH 7.4, 5 mM MgCl2, 1 mM DTT, 0.005% BSA) containing hPI3Kα, γ-[^33P] ATP (PerkinElmer) and cold 500 nM ATP is added to the wells on this plate and the mixture is reacted at room temperature for 1 hr. 50 mM EDTA solution is added to quench the reaction, and the wells are washed with PBS. The radioactivity remaining in the well is measured as enzyme activity by TopCount (PerkinElmer).

T2 sequence (P42336 whole entry): as the sequence (P42336 whole entry) above
T2 sequence (P27986 whole entry partner): as the sequence (P27986 whole entry partner) above

Q: `C=CCOc1nc(-c2c(C)nn3ccccc23)sc1-c1nnc[nH]1` [Example 27-B, 2-methyl-3-[4-(prop-2-en-1-yloxy)-5-(4H-1,2,4-triazol-3-yl)-1,3-thiazol-2-yl]pyrazolo[1,5-a]pyridine] was tested. Which “Inhibitory rate at 1.0 μm (%)” value did it give?
A: 100%

Q: For `Cc1nn2ccc(OCCN3CCCCC3)cc2c1-c1nc(-c2ccccc2)c(-c2nnc[nH]2)s1` [Example 32-B, 2-methyl-3-[4-phenyl-5-(4H-1,2,4-triazol-3-yl)-1,3-thiazol-2-yl]-5-(2-piperidin-1-ylethoxy)pyrazolo[1,5-a]pyridine di-p-toluenesulfonate], which “Inhibitory rate at 1.0 μm (%)” value is on record?
A: 100%

Q: How did the “Inhibitory rate at 1.0 μm (%)” value turn out when `Cc1nn2ccsc2c1-c1nc(-c2ccccc2)c(-c2nnc[nH]2)s1` [Example 35-B, 6-methyl-7-[4-phenyl-5-(4H-1,2,4-triazol-3-yl)-1,3-thiazol-2-yl]pyrazolo[5,1-b][1,3]thiazole acetate] was run?
A: 101%

biological target: T3, human mTOR (Homo sapiens, UniProt P42345); assay: Human mTOR enzyme assay (Z'-lyte peptide FRET); format: biochemical; conditions: mTOR enzyme activity, compound at 1.0 μm, 10 μM ATP
T3 construct: purchased Invitrogen
Experimental: mTOR reaction buffer (50 mM HEPES, pH 7.5, 5 mM MgCl2, 5 mM MnCl2, 1 mM EGTA, 1 mM DTT, 0.01% BRIJ-35, 0.01% NaN3) containing human mTOR (Invitrogen), 10 μM ATP and 2 μM Z′-lyte 11Ser/Thr peptide (Invitrogen) is added to the well and the mixture is reacted at room temperature for 1 hr.
Development Buffer containing Development Reagent B (for Z′-lyte peptide, Invitrogen) was added, and the mixture is reacted at room temperature for 30 min. The fluorescence at 520 nm and fluorescence at 445 nm are measured with excitation at 400 nm using SpectraMax M5e (Molecular Device). The ratio of the obtained 445 nm fluorescence value/520 nm fluorescence value is calculated, and changes in the fluorescence resonance energy transfer (FRET) of Z′-lyte peptide are detected as the enzyme activity.

T3 sequence (P42345 1360-2549 limits assumed): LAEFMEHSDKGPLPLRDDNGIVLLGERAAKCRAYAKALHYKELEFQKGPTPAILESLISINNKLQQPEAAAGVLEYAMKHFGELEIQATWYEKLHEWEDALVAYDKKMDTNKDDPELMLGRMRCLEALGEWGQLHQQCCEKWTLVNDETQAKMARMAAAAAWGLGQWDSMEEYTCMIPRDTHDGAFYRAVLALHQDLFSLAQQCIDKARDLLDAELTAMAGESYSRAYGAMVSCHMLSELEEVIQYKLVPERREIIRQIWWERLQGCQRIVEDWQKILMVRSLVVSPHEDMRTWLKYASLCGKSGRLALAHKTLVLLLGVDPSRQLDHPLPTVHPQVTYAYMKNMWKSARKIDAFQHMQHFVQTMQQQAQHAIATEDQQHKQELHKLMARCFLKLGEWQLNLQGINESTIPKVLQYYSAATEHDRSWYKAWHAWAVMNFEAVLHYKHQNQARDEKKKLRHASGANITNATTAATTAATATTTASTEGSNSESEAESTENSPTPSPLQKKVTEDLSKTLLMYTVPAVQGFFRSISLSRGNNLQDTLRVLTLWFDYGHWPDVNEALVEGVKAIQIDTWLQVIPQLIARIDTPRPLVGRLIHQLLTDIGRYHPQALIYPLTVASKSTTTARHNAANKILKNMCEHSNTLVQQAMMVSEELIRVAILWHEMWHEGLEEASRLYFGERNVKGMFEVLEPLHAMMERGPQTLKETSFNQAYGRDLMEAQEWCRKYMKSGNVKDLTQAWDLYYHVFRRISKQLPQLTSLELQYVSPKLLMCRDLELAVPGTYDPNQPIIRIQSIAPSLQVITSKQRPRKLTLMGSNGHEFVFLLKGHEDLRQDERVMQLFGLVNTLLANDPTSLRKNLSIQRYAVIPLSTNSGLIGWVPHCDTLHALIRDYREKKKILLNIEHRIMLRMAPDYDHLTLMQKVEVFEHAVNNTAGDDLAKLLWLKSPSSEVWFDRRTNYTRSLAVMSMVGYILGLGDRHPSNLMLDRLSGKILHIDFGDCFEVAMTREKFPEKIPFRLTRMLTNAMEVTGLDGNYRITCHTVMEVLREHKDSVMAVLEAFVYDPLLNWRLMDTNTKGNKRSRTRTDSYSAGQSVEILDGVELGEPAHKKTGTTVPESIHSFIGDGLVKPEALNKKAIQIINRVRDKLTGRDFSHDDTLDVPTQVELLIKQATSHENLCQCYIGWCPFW

Q: `Cc1nn2ccc(OCCN3CCOCC3)cc2c1-c1nc(-c2ccccc2)c(-c2nnc[nH]2)s1` [Example 31-B, 2-methyl-5-(2-morpholin-4-ylethoxy)-3-[4-phenyl-5-(4H-1,2,4-triazol-3-yl)-1,3-thiazol-2-yl]pyrazolo[1,5-a]pyridine di-p-toluenesulfonate] was tested. Which “Inhibitory rate at 1.0 μm (%)” value did it give?
A: 93%

Q: For `Cc1nn2ccc(OCCO)cc2c1-c1nc(-c2ccccc2)c(-c2nnc[nH]2)s1` [Example 33-B, 2-({2-methyl-3-[4-phenyl-5-(4H-1,2,4-triazol-3-yl)-1,3-thiazol-2-yl]pyrazolo[1,5-a]pyridin-5-yl}oxy)ethanol], which “Inhibitory rate at 1.0 μm (%)” value is on record?
A: 91%

— US9090601B2, “Thiazole derivatives” (Millennium Pharmaceuticals, Inc., priority 2009, dated 2015)
